Like-named read-outs stand apart in the source and are kept apart here.
Assays:
[1] = tested on: T4 lymphocytes (CEM cell line); experiment: Cell growth / toxicity control in uninfected T4 lymphocytes (CEM), XTT-formazan; format: cell-based; settings: for IC50: approximate values; for activity at 2 µM: dose 2.00 × 10^-6 Molar; for activity at 0.2 µM: dose 2.00 × 10^-7 Molar; for activity at 63.2 µM: dose 6.32 × 10^-5 Molar; for activity at 0.634 µM: dose 6.34 × 10^-7 Molar; for activity at 0.0635 µM: dose 6.35 × 10^-8 Molar
Excerpt: (§1) The NCI procedure is fully described, for example, in a bulletin provided by the National Institutes of Health, National Cancer Institute, Bethesda, Md. 20892, all of which is incorporated herein by reference. As related in the NCI bulletin, the procedure is based on O. W. Weislow et al., "New soluble-formazan assay for HIV-1 cytopathic effects: application to high flux screening of synthetic and natural products for AIDS-antiviral activity", J. Natl. Cancer Inst. 81:577-586 (1989), and is used to test for compounds active against human immunodeficiency virus (HIV), and is designed to detect compounds active at any stage of the virus reproductive cycle. As further related in the NCI bulletin, the assay includes killing of T4 lymphocytes by HIV. Amounts of HIV are added to cells, with a minimum of two cycles of virus reproduction found to be necessary to obtain the required cell killing. Compounds that interact with virions, cells, or virus gene-products to interfere with viral activities will protect cells from cytolysis. All were compared with a positive (e.g., AZT-treated) control evaluation at the same time under identical conditions. The procedure is set forth as follows:
(§2) A candidate compound is first dissolved in a suitable solvent, preferably dimethyl sulfoxide, then diluted 1:100 in cell culture medium before preparing serial half-log10 dilutions. T4 lymphocytes (CEM cell line) are then added and after a brief interval HIV-1 is added, resulting in a 1:200 final dilution of the compound. Uninfected cells with the compound serve as a toxicity control, and infected and uninfected without the compound serve as basic controls. Cultures are then incubated at 37° in a 5% carbon dioxide atmosphere for 6 days. The tetrazolium salt, XTT, is added to all wells, and cultures are incubated to allow formazan color development by viable cells. Individual wells are analyzed spectrophotometrically to quantitate formazan product, and in addition are viewed microscopically for detection of viable cells and confirmation of protective activity. Drug-treated virus-infected cells are compared with drug-treated noninfected cells and with other appropriate controls (untreated infected and untreated noninfected cells, drug-containing wells without cells, etc.) on the same plate. Data are reviewed in comparison with other tests performed at the same time and a determination as to activity is made.

[2] = tested on: HIV-1; experiment: NCI in vitro anti-HIV drug screen: XTT-formazan assay, protection of T4 lymphocytes (CEM) from HIV-1 cytopathic effects; format: cell-based, human immunodeficiency virus (HIV-1); settings: for EC50: 144 h, HIV-1 infected CEM cells, 6 days, XTT, approximate values, read-out: EC50 (50% effective concentration against HIV cytopathic effects); for inhibition at 2 µM / activity at 2 µM: dose 2.00 × 10^-6 Molar; for TI50 (IC/EC), Therapeutic Index: IC50/EC50; for inhibition at 6.33 µM / activity at 6.33 µM: dose 6.33 × 10^-6 Molar
Procedure: Compounds of the present invention were evaluated for anti-HIV efficacy by the National Cancer Institute's (NCI) In Vitro Anti AIDS Drug Discovery Program.
as §1, §2

[3] = Homo sapiens, CCRF-CEM, dose 2.00 × 10^-5 Molar, read-out: Percent of Control, Uninfected
[4] = Homo sapiens, CCRF-CEM, read-out: Percent of Control, Uninfected
[5] = Human immunodeficiency virus 1, CCRF-CEM
[6] = Human immunodeficiency virus 1, CCRF-CEM, dose 2.00 × 10^-5 Molar, read-out: Percent of Protection
[7] = Human immunodeficiency virus 1, CCRF-CEM, read-out: Percent of Protection
[8] = Human immunodeficiency virus 1, CCRF-CEM, dose 2.00 × 10^-7 Molar, read-out: Percent of Protection
[9] = Human immunodeficiency virus 1, Lymphocyte, dose 2.00 × 10^-5 Molar, read-out: Percent of Control, Infected
[10] = Human immunodeficiency virus 1, Lymphocyte, read-out: Percent of Control, Infected
[11] = Human immunodeficiency virus 1, Lymphocyte, dose 2.00 × 10^-7 Molar, read-out: Percent of Control, Infected
[12] = Homo sapiens, CCRF-CEM, 144 h, uninfected CEM cells, 6 days, XTT, read-out: IC50 (50% inhibitory concentration for cell growth)
[13] = Homo sapiens, CCRF-CEM, dose 2.00 × 10^-4 Molar, read-out: Percent of Control, Uninfected
[14] = Homo sapiens, CCRF-CEM, dose 6.33 × 10^-6 Molar, read-out: Percent of Control, Uninfected
[15] = Human immunodeficiency virus 1, CCRF-CEM, dose 2.00 × 10^-4 Molar, read-out: Percent of Protection
[16] = Human immunodeficiency virus 1, CCRF-CEM, dose 6.32 × 10^-5 Molar, read-out: Percent of Protection
[17] = Human immunodeficiency virus 1, CCRF-CEM, dose 6.34 × 10^-7 Molar, read-out: Percent of Protection
[18] = Human immunodeficiency virus 1, CCRF-CEM, dose 6.35 × 10^-8 Molar, read-out: Percent of Protection
[19] = Human immunodeficiency virus 1, Lymphocyte, dose 2.00 × 10^-4 Molar, read-out: Percent of Control, Infected
[20] = Human immunodeficiency virus 1, Lymphocyte, dose 6.32 × 10^-5 Molar, read-out: Percent of Control, Infected
[21] = Human immunodeficiency virus 1, Lymphocyte, dose 6.34 × 10^-7 Molar, read-out: Percent of Control, Infected
[22] = Human immunodeficiency virus 1, Lymphocyte, dose 6.35 × 10^-8 Molar, read-out: Percent of Control, Infected
[23] = dose 2.00 × 10^-4 Molar, listed as Example 21
[24] = dose 2.00 × 10^-5 Molar, listed as Example 21

Row | SMILES | activity at 20 µM [1, 3] [%] | activity at 2 µM [1, 4] [%] | activity at 0.2 µM [1, 4] [%] | EC50 [2, 5] [nM] | inhibition at 20 µM [2, 6] [%] | inhibition at 2 µM [2, 7] [%] | inhibition at 0.2 µM [2, 8] [%] | activity at 20 µM [2, 9] [%] | activity at 2 µM [2, 10] [%] | activity at 0.2 µM [2, 11] [%] | TI50 (IC/EC), Therapeutic Index [2] | IC50 [1, 12] [nM] | activity at 200 µM [1, 13] [%] | activity at 63.2 µM [1, 4] [%] | activity at 6.33 µM [1, 14] [%] | activity at 0.634 µM [1, 4] [%] | activity at 0.0635 µM [1, 4] [%] | inhibition at 200 µM [2, 15] [%] | inhibition at 6.33 µM [2, 7] [%] | activity at 6.33 µM [2, 10] [%] | other results
1 | O=[N+]([O-])c1ccccc1S(=O)(=O)c1cc(Cl)cc2c1NCCC2 [Compound 47, 8-(2-nitrophenylsulfonyl)6chloro-1,2,3,4-tetrahydroquinoline] | 96.1 | 92.6 | 87.1 | 312 | 86.2 | 88.8 | 25.3 | 86.2 | 88.8 | 25.3 | 6.41 × 10^+1 | – | – | – | – | – | – | – | – | – | IC50 ([1]; Homo sapiens, CCRF-CEM, 144 h, read-out: IC50 (50% inhibitory concentration for cell growth), uninfected CEM cells, 6 days, XTT): > 20000 nM; activity at 0.02 µM ([1]; Homo sapiens, CCRF-CEM, dose 2.00 × 10^-8 Molar, read-out: Percent of Control, Uninfected): 91.2%; activity at 6.32 µM ([1]; Homo sapiens, CCRF-CEM, dose 6.32 × 10^-6 Molar, read-out: Percent of Control, Uninfected): 104%; activity at 0.633 µM ([1]; Homo sapiens, CCRF-CEM, dose 6.33 × 10^-7 Molar, read-out: Percent of Control, Uninfected): 86.3%; activity at 0.0634 µM ([1]; Homo sapiens, CCRF-CEM, dose 6.34 × 10^-8 Molar, read-out: Percent of Control, Uninfected): 92%; activity at 0.00635 µM ([1]; Homo sapiens, CCRF-CEM, dose 6.35 × 10^-9 Molar, read-out: Percent of Control, Uninfected): 91.2%; inhibition at 0.02 µM ([2]; Human immunodeficiency virus 1, CCRF-CEM, dose 2.00 × 10^-8 Molar, read-out: Percent of Protection): 6%; inhibition at 6.32 µM ([2]; Human immunodeficiency virus 1, CCRF-CEM, dose 6.32 × 10^-6 Molar, read-out: Percent of Protection): 102%; inhibition at 0.633 µM ([2]; Human immunodeficiency virus 1, CCRF-CEM, dose 6.33 × 10^-7 Molar, read-out: Percent of Protection): 90%; inhibition at 0.0634 µM ([2]; Human immunodeficiency virus 1, CCRF-CEM, read-out: Percent of Protection, dose 6.34 × 10^-8 Molar): 8.87%; inhibition at 0.00635 µM ([2]; Human immunodeficiency virus 1, CCRF-CEM, read-out: Percent of Protection, dose 6.35 × 10^-9 Molar): 3%; activity at 0.02 µM ([2]; Human immunodeficiency virus 1, Lymphocyte, dose 2.00 × 10^-8 Molar, read-out: Percent of Control, Infected): 6%; activity at 6.32 µM ([2]; Human immunodeficiency virus 1, Lymphocyte, dose 6.32 × 10^-6 Molar, read-out: Percent of Control, Infected): 102%; activity at 0.633 µM ([2]; Human immunodeficiency virus 1, Lymphocyte, dose 6.33 × 10^-7 Molar, read-out: Percent of Control, Infected): 90%; activity at 0.0634 µM ([2]; Human immunodeficiency virus 1, Lymphocyte, dose 6.34 × 10^-8 Molar, read-out: Percent of Control, Infected): 8.87%; activity at 0.00635 µM ([2]; Human immunodeficiency virus 1, Lymphocyte, dose 6.35 × 10^-9 Molar, read-out: Percent of Control, Infected): 3%
2 | O=[N+]([O-])c1ccccc1S(=O)(=O)c1cccc2c1NCCC2 [Compound 46, 8-(2-nitrophenylsulfonyl)-1,2,3,4-tetrahydroquinoline] | 95.8 | 95.4 | 98.9 | 1320 | 76.4 | 69.4 | 6.11 | 76.8 | 70 | 7.99 | 3.78 × 10^+1 | 49900 | 1.77 | 38.1 | 94 | 100 | 98.9 | -0.28 | 89.1 | 89.3 | inhibition at 63.2 µM [2, 16]: 33.6%; inhibition at 0.634 µM [2, 17]: 16.3%; inhibition at 0.0635 µM [2, 18]: -1.64%; activity at 200 µM [2, 19]: 1.73%; activity at 63.2 µM [2, 20]: 35%; activity at 0.634 µM [2, 21]: 17.9%; activity at 0.0635 µM [2, 22]: 0.39%
3 | CNc1ccc(S(=O)(=O)c2ccccc2[N+](=O)[O-])cc1Cl [Compound 77, 4-(2-nitrophenylsulfonyl)-2-chloro-N-methylaniline] | 89.7 | 110 | 106 | 119 | 96.7 | 100 | 82 | 96.8 | 100 | 82.9 | > 1.69 × 10^+3 | > 200000 | 111 | 95.2 | 100 | 107 | 111 | 100 | 99.5 | 99.5 | inhibition at 63.2 µM [2, 16]: 106%; inhibition at 0.634 µM [2, 17]: 89.8%; inhibition at 0.0635 µM [2, 18]: 12.3%; activity at 200 µM [2, 19]: 100%; activity at 63.2 µM [2, 20]: 106%; activity at 0.634 µM [2, 21]: 90.3%; activity at 0.0635 µM [2, 22]: 16.7%
4 | CNc1ccccc1S(=O)(=O)c1ccccc1[N+](=O)[O-] [Compound 66, 2-(2-nitrophenylsulfonyl)-N-methylaniline] | – | 101 | 105 | 1020 | – | 93.1 | – | – | 93.8 | – | – | – | – | 23.9 | – | 99.4 | 98.5 | – | 107 | 106 | Percent of Control, Uninfected [1, 23]: -4.40%; Percent of Control, Uninfected [1, 24]: 104.09%; Percent of Control, Uninfected ([1]; dose 6.33 × 10^-6 Molar, listed as Example 21): 109.40%; IC50 ([1]; read-out: IC50 (50% inhibitory concentration for cell growth), uninfected CEM cells, 6 days, XTT, listed as Example 21): 43500 nM; TI50 (IC/EC), Therapeutic Index ([2]; listed as Example 21): 4.24 × 10^+1; Percent of Protection ([2]; dose 2.00 × 10^-4 Molar, 200 µM, listed as Example 21, 200 µM): -15.92%; Percent of Control, Infected [2, 23]: -4.33%; Percent of Protection ([2]; dose 2.00 × 10^-5 Molar, 20 µM, listed as Example 21, 20 µM): 98.73%; Percent of Control, Infected [2, 24]: 98.86%; Percent of Protection ([2]; dose 2.00 × 10^-7 Molar, 0.2 µM, listed as Example 21, 0.2 µM): 4.77%; Percent of Control, Infected ([2]; dose 2.00 × 10^-7 Molar, listed as Example 21): 14.29%; Percent of Protection ([2]; dose 6.32 × 10^-5 Molar, 63.2 µM, listed as Example 21, 63.2 µM): 24.17%; Percent of Control, Infected ([2]; dose 6.32 × 10^-5 Molar, listed as Example 21): 31.75%; Percent of Protection ([2]; dose 6.34 × 10^-7 Molar, 0.634 µM, listed as Example 21, 0.634 µM): 19.34%; Percent of Control, Infected ([2]; dose 6.34 × 10^-7 Molar, listed as Example 21): 27.41%; Percent of Protection ([2]; dose 6.35 × 10^-8 Molar, 0.0635 µM, listed as Example 21, 0.0635 µM): 2.40%; Percent of Control, Infected ([2]; dose 6.35 × 10^-8 Molar, listed as Example 21): 12.16%

— US6303630A, “Diarylsulfone non-nucleoside reverse transcriptase inhibitors of human immunodeficiency virus” (University of the Sciences in Philadelphia, priority 2000, dated 2001)
